Entries after “also recorded” stand apart in the source; their conditions may differ.
Experiments:
mouse model of stroke = conditions: after ischemia and reperfusion; Arumugam et al. 2006; cited from earlier work
[1] = system: TBI mice (controlled cortical impact); assay: MRI of brain lesion 21 days after CCI; format: in vivo, mouse
Excerpt: Five mice in each TBI group were randomly chosen for T2-weighted magnetic resonance imaging (MRI) analysis at 21 days after trauma. […] This was confirmed by fixed brain tissue sections (FIG. 7). […] Total lesion volume was reduced by 30% in […] (FIG. 9, P<0.05).
(§1) The representative MRI images show a vehicle-treated TBI mouse with the brain lesion visible through 4 mm (8 mm×0.5 mm longitudinal sections) of tissue, whereas DAPT treatment results in damage through only 1.5 mm (3 mm×0.5 mm sections) (FIG. 13). […] The damage to the hippocampus was not as extensive as that seen in the Bacel study; however, cell loss in the CA1 region of mice after TBI was clearly visible (FIG. 16). This allowed quantification of cell loss in the hippocampus (FIG. 17). Neurons were stained with NeuN, a neuronal marker, and an unbiased stereology count was performed. TBI caused a 34% decrease in NeuN-positive cells in the CA1 region of the ipsilateral hippocampus (P<0.05). DAPT treatment attenuated this cell loss, resulting in a 10% reduction in CA1 neurons (P<0.05 versus vehicle-treated TBI mice).

[2] = system: TBI mice (controlled cortical impact); assay: Histological assessment of lesion volume and NeuN stereology count of CA1 neurons; format: in vivo, mouse
Excerpt: as §1

[3] = system: TBI mice (controlled cortical impact); assay: Beam walk test (fine motor coordination) after CCI; format: in vivo, mouse; conditions: for foot faults (beam walk): TBI mice, 50 steps
Description: To test the effect of β-secretase on TBI outcome, the B-APP cleaving enzyme-1 (BACE1) Bace1^−/− knockout mouse was used. Bace1 is the initial rate-limiting enzyme for Aβ production. Bace1^−/− mice are unable to produce any species of Aβ (Cai et al., Nat. Neurosci. 4:233-4 (2001)), and the absence of Aβx-40 in brain homogenates by ELISA (0.1±0.09 fmol per mg protein) was confirmed. CCI surgery was performed, and the beam walk test was used to detect fine motor coordination aberrations (Fox et al., J. Neurotrauma 15:599-614 (1998)). This test examines the number of errors (foot faults) made by the right hind limb over 50 steps. The mice were trained on the test before injury, and the test was repeated on 1 day, 3 days, 7 days, 14 days, and 21 days after TBI. Injured Bace1^−/− mice made fewer foot faults at multiple time points, with a 38% final improvement over injured Bace1^+/+ mice (FIG. 4, P<0.001).
(§2) The other secretase involved in amyloidogenic processing of APP is γ-secretase, and the pharmacological inhibitor N-[N-(3,5-difluorophenacetyl-L-alanyl)]-S-phenlyglycine t-butyl ester (DAPT) was used to block enzyme activity. […] Each mouse received the initial dose 15 minutes after CCI or sham surgery and then twice daily for 21 days. This dosing regime was implemented because Aβ is known to drop after γ-secretase inhibition before recovering over several hours (Abramowski et al., J. Pharmacol. Exp. Ther. 327:411-24 (2008), El Mouedden et al., Curr. Pharm. Des. 12:671-6 (2006)). To confirm γ-secretase inhibition in DAPT-treated mice, Aβ concentrations were measured. Three hours after final drug administration, Aβ levels were reduced by 25% (13.76±0.8 fmol per mg protein (vehicle-treated TBI mice) versus 10.42±0.4 fmol per mg protein (DAPT-treated TBI mice); P<0.01), and APP carboxy-terminal fragments accumulated.
(§3) On the day after CCI, the first beam walk test was conducted. Vehicle-treated TBI mice made 50±0 foot faults and improved to 43±2 foot faults on the final day of testing (FIG. 9). […] Spatial learning with the Morris water maze was also tested.

γ-secretase = assay: Aβ concentrations in DAPT-treated TBI mice, to confirm γ-secretase inhibition; format: in vivo, mouse; conditions: three hours after final drug administration
Description: as §2

[4] = system: TBI mice (controlled cortical impact); assay: Morris water maze (spatial learning) after CCI; format: in vivo, mouse
Description: A Morris water maze paradigm was used to assess spatial learning by training mice to locate a hidden, submerged platform using extramaze visual information (Fox et al., J. Neurotrauma 15:599-614 (1998)). The test was conducted 15-18 days after injury, and each mouse was tested for four trials per day for four consecutive days. Uninjured Bace1^+/+ mice were used as a behavioral control. Injured Bace1^+/+ mice had significant learning impairments on all 4 days of testing compared to uninjured Bace1^+/+ mice (P<0.01). Injured Bace1^−/− mice, however, improved rapidly, and on the final day of testing were indistinguishable from uninjured mice (FIG. 5, P<0.01). All groups had similar escape latencies when presented with a visual platform probe test (uninjured Bace1^+/+, 23.4±6.3 seconds; injured Bace1^+/+, 21.1±7.8 seconds; injured Bace1^−/−, 21.2±4.9 seconds).
as §2, §3

C[C@H](NC(=O)Cc1cc(F)cc(F)c1)C(=O)N[C@H](C(=O)OC(C)(C)C)c1ccccc1 [DAPT, N-[N-(3,5-Difluorophenacetyl)-L-alanyl]-S-phenylglycine t-butyl ester]
infarct area (mouse model of stroke): reduced infarct area | neurological function (mouse model of stroke): improved neurological function | lesion size by MRI ([1]; injured mice, in words): substantially reduced lesion size | depth of tissue through which damage is visible on MRI ([1]; representative images, 0.5 mm sections): 1.5 mm | tissue sparing (histology) ([2]; H&E sections, in words): spared large areas of cortex and subcortical white matter tracts; also recorded: Subcortical white matter tracts are spared | reduction in CA1 neurons (NeuN-positive cells, ipsilateral hippocampus) ([2]; TBI mice, stereology count): 10% | neuronal populations in ipsilateral CA1 versus contralateral ([2]; stereology cell counts, in words): This reduction is prevented | lesion volume ([2]; versus vehicle control, in words): reduced | lesion volume decreased ([2]; versus vehicle-treated TBI mice): > 70% | improvement in foot faults over vehicle-treated TBI mice ([3]; 21 days after injury): 42% | foot faults (beam walk) ([3]; 21 days after injury): 25±5 foot faults | foot faults (beam walk) ([3]; day after surgery): 48±1 foot faults | recovery of fine motor coordination on beamwalk test ([3]; after 21 days, in words): Recovery is improved | Aβ levels reduced (γ-secretase; DAPT 30 mg per kg orally twice daily for 21 days, versus vehicle-treated TBI mice): 25% | APP carboxy-terminal fragments (γ-secretase; DAPT-treated TBI mice): accumulated | Aβ concentration (γ-secretase; DAPT-treated TBI mice): 10.42±0.4 fmol per mg protein | escape latency, visible platform probe ([4]; TBI mice): 17.5 ± 3.7 s | spatial learning in Morris water maze ([4]; TBI mice, 4 days of test, in words): indistinguishable from sham-injured mice; also recorded: prevents these deficits | escape latency, visible platform probe ([4]; sham-operated mice): 13.6 ± 3.4 s
